Data: US20260258064A1 (SIRONAX LTD., priority 2023, published 2026)
pIC50: −log10 of the molar value.

target: T1, SARM1 (50-724) (Homo sapiens, UniProt Q6SZW1); assay: SARM1 (50-724) enzymatic assay (LC-MS/MS); type: biochemical; conditions: Purified SARM1 (50-724) 2 nM, NMN as activator, NAD+ as substrate, 1 h at room temperature, read-out: IC50 (SARM1 inhibitory activity)
T1 construct: Purified SARM1 (50-724) with a final concentration of 2 nM was pre-incubated with a test compound
T1 sequence (Q6SZW1 50-724): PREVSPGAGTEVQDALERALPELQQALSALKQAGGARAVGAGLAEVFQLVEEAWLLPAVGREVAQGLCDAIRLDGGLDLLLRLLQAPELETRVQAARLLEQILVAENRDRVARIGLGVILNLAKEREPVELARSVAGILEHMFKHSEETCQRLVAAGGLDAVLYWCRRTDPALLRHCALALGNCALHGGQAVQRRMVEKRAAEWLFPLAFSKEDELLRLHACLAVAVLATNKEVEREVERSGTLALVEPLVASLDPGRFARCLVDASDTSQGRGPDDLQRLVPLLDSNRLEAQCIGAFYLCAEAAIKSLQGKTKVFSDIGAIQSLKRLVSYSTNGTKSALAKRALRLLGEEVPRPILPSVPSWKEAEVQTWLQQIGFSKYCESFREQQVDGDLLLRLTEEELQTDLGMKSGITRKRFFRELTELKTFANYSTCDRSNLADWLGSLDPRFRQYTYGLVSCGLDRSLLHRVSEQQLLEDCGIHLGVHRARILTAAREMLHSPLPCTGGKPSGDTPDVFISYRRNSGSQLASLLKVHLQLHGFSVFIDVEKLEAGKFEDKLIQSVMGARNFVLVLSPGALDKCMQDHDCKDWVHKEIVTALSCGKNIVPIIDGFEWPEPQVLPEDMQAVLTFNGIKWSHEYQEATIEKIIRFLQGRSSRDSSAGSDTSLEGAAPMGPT
How it was run: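 Human SARM1 (50-724), 2 nM, pre-incubated 15 min at room temperature with compound in Dulbecco's PBS. Reaction started with 200 µM NMN (activator) plus […] NAD^+ substrate, run 1 h at room temperature, quenched with 70% acetonitrile. Turnover quantified by LC-MS/MS; IC50 reported.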

pIC50 | SMILES
≥ 7.00 | NC(=O)C1(c2ccc3[nH]c(-c4nncn4-c4ccc(F)c(F)c4Cl)nc3c2)CC1 [Compound 171, 1-(2-(4-(2-chloro-3,4-difluorophenyl)-4H-1,2,4-triazol-3-yl)-1H-benzo[d]imidazol-5-yl)cyclopropane-1-carboxamide]
≥ 7.00 | Fc1cc(C2(F)CC2)cc2nc(-c3nncn3-c3cnccc3C(F)(F)F)[nH]c12 [Compound 285, 7-fluoro-5-(1-fluorocyclopropyl)-2-(4-(4-(trifluoromethyl)pyridin-3-yl)-4H-1,2,4-triazol-3-yl)-1H-benzo[d]imidazole]
≥ 7.00 | Clc1cccc(-n2cnnc2-c2nc3cc(-c4cscn4)ccc3[nH]2)c1Cl [Example 100, 4-(2-(4-(2,3-dichlorophenyl)-4H-1,2,4-triazol-3-yl)-1H-benzo[d]imidazol-5-yl)thiazole]
≥ 7.00 | FC(F)(F)c1ccc2[nH]c(-c3nnc(Cl)cc3-c3ccccc3Cl)nc2c1 [Compound 407, 2-(6-chloro-4-(2-chlorophenyl)pyridazin-3-yl)-5-(trifluoromethyl)-1H-benzo[d]imidazole]
≥ 7.00 | FC(F)c1nnc(-c2nc3cc(C(F)(F)F)ccc3[nH]2)n1-c1cnccc1C(F)(F)F [Compound 306, 2-(5-(difluoromethyl)-4-(4-(trifluoromethyl)pyridin-3-yl)-4H-1,2,4-triazol-3-yl)-5-(trifluoromethyl)-1H-benzo[d]imidazole]
≥ 7.00 | CC(C)(O)Cc1nnc(-c2nc3cc(C(F)(F)F)ccc3[nH]2)n1-c1cccc(F)c1Cl [Compound 388, 1-(4-(2-chloro-3-fluorophenyl)-5-(5-(trifluoromethyl)-1H-benzo[d]imidazol-2-yl)-4H-1,2,4-triazol-3-yl)-2-methylpropan-2-ol]
≥ 7.00 | COC(=O)C(C)c1ccc2[nH]c(-c3nncn3-c3cccc(Cl)c3Cl)nc2c1 (stereo not shown) [Example 101, methyl 2-(2-(4-(2,3-dichlorophenyl)-4H-1,2,4-triazol-3-yl)-1H-benzo[d]imidazol-5-yl)propanoate]
≥ 7.00 | CC(c1ccncc1)c1cc(F)c2[nH]c(-c3nncn3-c3cnccc3C(F)(F)F)nc2c1 (stereo not shown) [Compound 445, 7-fluoro-5-(1-(pyridin-4-yl)ethyl)-2-(4-(4-(trifluoromethyl)pyridin-3-yl)-4H-1,2,4-triazol-3-yl)-1H-benzo[d]imidazole]
≥ 7.00 | Clc1cccc(-n2cnnc2-c2nc3cc(-c4ccn[nH]4)ccc3[nH]2)c1Cl [Example 68, 2-(4-(2,3-dichlorophenyl)-4H-1,2,4-triazol-3-yl)-5-(1H-pyrazol-5-yl)-1H-benzo[d]imidazole]
≥ 7.00 | CC(c1cc(F)c2[nH]c(-c3nncn3-c3cnccc3C(F)(F)F)nc2c1)C(F)(F)F (stereo not shown) [Compound 278, 7-fluoro-2-(4-(4-(trifluoromethyl)pyridin-3-yl)-4H-1,2,4-triazol-3-yl)-5-(1,1,1-trifluoropropan-2-yl)-1H-benzo[d]imidazole]
6.30 to 7.00 | Cc1cc(-c2ccc3[nH]c(-c4nncn4-c4cccc(Cl)c4Cl)nc3c2)sn1 [Example 80, 5-(2-(4-(2,3-dichlorophenyl)-4H-1,2,4-triazol-3-yl)-1H-benzo[d]imidazol-5-yl)-3-methylisothiazole]
≥ 7.00 | CCC(O)(CC)c1ccc2[nH]c(-c3nncn3-c3ccc(F)c(F)c3Cl)nc2c1 [Compound 151, 3-(2-(4-(2-chloro-3,4-difluorophenyl)-4H-1,2,4-triazol-3-yl)-1H-benzo[d]imidazol-5-yl)pentan-3-ol]
≥ 7.00 | CC1CC1c1cc(F)c2[nH]c(-c3nncn3-c3cnccc3C(F)(F)F)nc2c1 (stereo not shown) [Compound 330, 7-fluoro-5-(2-methylcyclopropyl)-2-(4-(4-(trifluoromethyl)pyridin-3-yl)-4H-1,2,4-triazol-3-yl)-1H-benzo[d]imidazole]
≥ 7.00 | CS(=O)(=O)Cc1nnc(-c2nc3cc(C(F)(F)F)cc(F)c3[nH]2)n1-c1cccc(F)c1Cl (single isomer, unassigned) [Compound 184, 2-(4-(2-Chloro-3-fluorophenyl)-5-((methylsulfonyl)methyl)-4H-1,2,4-triazol-3-yl)-7-fluoro-5-(trifluoromethyl)-1H-benzo[d]imidazole]
< 6.00 | O=C1CCCN1c1c(-c2nncn2-c2cnccc2C(F)(F)F)[nH]c2ccc(C(F)(F)F)cc12 [Compound 367, 1-(5-(trifluoromethyl)-2-(4-(4-(trifluoromethyl)pyridin-3-yl)-4H-1,2,4-triazol-3-yl)-1H-indol-3-yl)pyrrolidin-2-one]
< 6.00 | Cc1ccc2[nH]c(C3=C(C4CCCC4)C(=O)OC3)nc2c1 [Compound 8, 3-Cyclopentyl-4-(5-methyl-1H-benzo[d]imidazol-2-yl)furan-2(5H)-one]

pIC50 | SMILES
6.30 to 7.00 | Cc1nsc(-n2cnnc2-c2nc3cc(C(F)(F)F)ccc3[nH]2)c1Cl [Compound 69]
≥ 7.00 | FC(F)(F)Oc1cccnc1-n1cnnc1-c1nc2cc(C(F)(F)F)ccc2[nH]1 [Compound 177]
6.30 to 7.00 | FC(F)(F)c1ccc2[nH]c(-c3oncc3-c3cccc(Cl)c3Cl)nc2c1 [Compound 273, 4-(2,3-dichlorophenyl)-5-(5-(trifluoromethyl)-1H-benzo[d]imidazol-2-yl)isoxazole]
6.30 to 7.00 | FC(F)(F)c1ccc2[nH]c(-c3ccnnc3-c3cccc(Cl)c3Cl)nc2c1 [Compound 296, 2-(3-(2,3-dichlorophenyl)pyridazin-4-yl)-5-(trifluoromethyl)-1H-benzo[d]imidazole]
< 6.00 | O=c1[nH]nc(-c2cccc(Cl)c2Cl)n1-c1nc2cc(C(F)(F)F)ccc2[nH]1 [Compound 30, 3-(2,3-Dichlorophenyl)-4-[5-(trifluoromethyl)-1H-benzimidazol-2-yl]-1H-1,2,4-triazol-5-one]
≥ 7.00 | CN(CCCO)c1cc(F)c2[nH]c(-c3nncn3-c3cnccc3C(F)(F)F)nc2c1 [Compound 451, 3-((4-fluoro-2-(4-(4-(trifluoromethyl)pyridin-3-yl)-4H-1,2,4-triazol-3-yl)-1H-benzo[d]imidazol-6-yl)(methyl)amino)propan-1-ol]
< 6.00 | [O-][S+]1CCN(c2ccccc2)C(c2nc3cc(C(F)(F)F)ccc3[nH]2)C1 (stereo not shown) [Compound 325, 4-phenyl-3-(5-(trifluoromethyl)-1H-benzo[d]imidazole-2-yl)thiomorpholine 1-oxide]
< 6.00 | O=S1(=O)CC[C@@H](OC(F)(F)F)[C@H](n2cnnc2-c2nc3cc(C(F)(F)F)ccc3[nH]2)C1 (single isomer, unassigned) [Compound 288]
≥ 7.00 | Fc1ccc(OC(F)(F)F)c(-n2cnnc2-c2nc3cc(C(F)(F)F)cc(F)c3[nH]2)c1 [Compound 213, 7-fluoro-2-(4-(5-fluoro-2-(trifluoromethoxy)phenyl)-4H-1,2,4-triazol-3-yl)-5-(trifluoromethyl)-1H-benzo[d]imidazole]
≥ 7.00 | CON(C)Cc1nnc(-c2nc3cc(C(F)(F)F)ccc3[nH]2)n1-c1cccc(F)c1Cl [Compound 382, N-((4-(2-chloro-3-fluorophenyl)-5-(5-(trifluoromethyl)-1H-benzo[d]imidazol-2-yl)-4H-1,2,4-triazol-3-yl)methyl)-N,O-dimethylhydroxylamine]
≥ 7.00 | C=C(F)Cc1cc(F)c2[nH]c(-c3nncn3-c3cnccc3C(F)(F)F)nc2c1 [Compound 316, 7-fluoro-5-(2-fluoroallyl)-2-(4-(4-(trifluoromethyl)pyridin-3-yl)-4H-1,2,4-triazol-3-yl)-1H-benzo[d]imidazole]
≥ 7.00 | O=c1cc(-c2nc3cc(C(F)(F)F)ccc3[nH]2)c(-c2cccc(Cl)c2Cl)c[nH]1 [Example 40, 5-(2,3-dichlorophenyl)-4-[5-(trifluoromethyl)-1H-benzimidazol-2-yl]-1H-pyridin-2-one]
≥ 7.00 | CC(C)(O)COc1ccc(OC(F)(F)F)c(-n2cnnc2-c2nc3cc(C(F)(F)F)ccc3[nH]2)n1 [Compound 255, 2-methyl-1-((5-(trifluoromethoxy)-6-(3-(5-(trifluoromethyl)-1 H-benzo[d]imidazol-2-yl)-4H-1,2,4-triazol-4-yl)pyridin-2-yl)oxy)propan-2-ol]
≥ 7.00 | OCC1(c2cc(F)c3[nH]c(-c4nncn4-c4cnccc4C(F)(F)F)nc3c2)CC1 [Compound 441, (1-(7-fluoro-2-(4-(4-(trifluoromethyl)pyridin-3-yl)-4H-1,2,4-triazol-3-yl)-1H-benzo[d]imidazol-5-yl)cyclopropyl)methanol]
≥ 7.00 | Fc1cc(C(F)(F)F)cc2nc(-c3nncn3-c3cc(Cl)ncc3OC(F)(F)F)[nH]c12 [Compound 218, 2-(4-(2-chloro-5-(trifluoromethoxy)pyridin-4-yl)-4H-1,2,4-triazol-3-yl)-7-fluoro-5-(trifluoromethyl)-1H-benzo[d]imidazole]
